Test system: VCAM-1
Assay: VCAM-1 assay: immunoassay of cell-surface VCAM-1 expression on TNF-stimulated human aortic endothelial cells (HAEC)
Format: cell-based
Conditions: TNF 250 U/mL, overnight (18 hours)
Description: CELL CULTURE: Human aortic endothelial cells (CellSystem) Media: 50:50 mix of CS 3.0 (CellSystem) and MCDB-107 (Sigma) 10% fetal bovine serum (FBS) (Hyclone) Tissue culture plates (24 well) (Costar) TNF: recombinant Tumor necrosis factor-alpha (Genzyme)
IMMUNOASSAYS: 10% buffered Formalin (Baxter) Dulbecco's modified eagle medium (DMEM), Phosphate buffered saline (PBS) (Gibco) Bovine serum albumin (BSA) (Sigma) Anti-ICAM-1 antibody (R&D System, BBA#3) Sheep anti-mouse IgG (Cappel, #55558) Horseradish peroxidase (HRP)-KIT (Bio-Rad, #172-1064) Anti-VCAM-1 antibody (R&D System, BBA#6) Goat anti-mouse IgG+IgM, F(ab)2 fragments, biotin conjugated (Jackson Immuno Research Lab, #115-066-068) 125-I-Streptavidin (Amersham, #IM.236)
Human aortic endothelial cells (HAEC) were seeded at 100,000 cells/mL/well in 24 well cluster plates and placed in a 5% CO2 to […] humidified incubator at 37° C. […]
The cells were incubated with anti-VCAM-1 monoclonal antibody (1.25 μg/mL) for 2 hours at 37° C. […] Cells were washed again (4 times) and digested overnight with the addition of 500 μL of 1N NaOH and radioactivity contained in the digests counted. Cell-surface VCAM-1 expression is shown as radioactivity bound to the cell surface under various conditions.

IC50: 23.1 µM
Structure (SMILES): Cc1c(C)c2c(c(C)c1O)CCC(C)(COc1ccc(NC(=S)NC(c3ccccc3)c3ccccc3)cc1)O2 (stereo not shown) [Example 1, 1-Benzhydryl-3-[4-(6-hydroxy-2,5,7,8-tetramethyl-Chroman-2-ylmethoxy)-phenyl]-thiourea]
